Laboratory results from the NIST ThermoML archive (doi:10.1021/je034265f).
± gives the expanded uncertainty stated by the source.

Experiment: activity coefficient (dimensionless); of the first substance listed, at infinite dilution; xn = mol fraction of the nth substance listed
Settings: Liquid, x1 = 0

| Compound | activity coefficient (249.99 K) | activity coefficient (270 K) | activity coefficient (290 K) | activity coefficient (310 K) | activity coefficient (330 K) | activity coefficient (250.01 K) | activity coefficient (270.04 K) | activity coefficient (290.01 K) | activity coefficient (310.01 K) | activity coefficient (249.97 K) | activity coefficient (269.99 K) | activity coefficient (249.96 K) |
| --- | --- | --- | --- | --- | --- | --- | --- | --- | --- | --- | --- | --- |
| C=CC=C [1,3-butadiene] + CCC(C)O | 3.5 ± 0.1 | 3.4 ± 0.1 | 3.2 ± 0.1 | 3 ± 0.1 | 2.8 ± 0.1 | – | – | – | – | – | – | – |
| C=CC=C [1,3-butadiene] + CCCCO | – | – | – | – | 2.8 ± 0.1 | 3 ± 0.1 | 2.9 ± 0.1 | 2.9 ± 0.1 | 2.9 ± 0.1 | – | – | – |
| C=CCC [1-butene] + CCC(C)O | – | – | 3.5 ± 0.1 | 3.3 ± 0.1 | 3.1 ± 0.1 | – | – | – | – | 3.7 ± 0.1 | 3.6 ± 0.1 | – |
| C=CCC [1-butene] + CCCCO | – | 3.4 ± 0.1 | – | 3.3 ± 0.1 | 3.2 ± 0.1 | 3.5 ± 0.1 | – | 3.4 ± 0.1 | – | – | – | – |
| CC(C)C [2-methylpropane] + CCC(C)O | – | 4.3 ± 0.1 | 4.2 ± 0.1 | 4.1 ± 0.1 | 3.8 ± 0.1 | – | – | – | – | 4.4 ± 0.1 | – | – |
| CC(C)C [2-methylpropane] + CCCCO | – | – | – | – | 4.1 ± 0.1 | 4.4 ± 0.1 | 4.4 ± 0.1 | 4.3 ± 0.1 | 4.3 ± 0.1 | – | – | – |
| C=C(C)C [2-methylpropene] + CCC(C)O | 3.7 ± 0.1 | 3.5 ± 0.1 | 3.4 ± 0.1 | 3.2 ± 0.1 | 3 ± 0.1 | – | – | – | – | – | – | – |

The remaining lines, values ahead:

| activity coefficient (249.99 K) | activity coefficient (270 K) | activity coefficient (290 K) | activity coefficient (310 K) | activity coefficient (330 K) | activity coefficient (250.01 K) | activity coefficient (270.04 K) | activity coefficient (290.01 K) | activity coefficient (310.01 K) | activity coefficient (249.97 K) | activity coefficient (269.99 K) | activity coefficient (249.96 K) | Compound |
| --- | --- | --- | --- | --- | --- | --- | --- | --- | --- | --- | --- | --- |
| – | – | – | – | 3.2 ± 0.1 | 3.4 ± 0.1 | 3.4 ± 0.1 | 3.4 ± 0.1 | 3.3 ± 0.1 | – | – | – | C=C(C)C [2-methylpropene] + CCCCO |
| – | – | 3.5 ± 0.1 | 3.3 ± 0.1 | 3.1 ± 0.1 | – | – | – | – | 3.7 ± 0.1 | 3.6 ± 0.1 | – | C/C=C/C [(E)-2-butene] + CCC(C)O |
| – | 3.4 ± 0.1 | – | 3.3 ± 0.1 | 3.3 ± 0.1 | 3.4 ± 0.1 | – | 3.4 ± 0.1 | – | – | – | – | C/C=C/C [(E)-2-butene] + CCCCO |
| – | 4.1 ± 0.1 | 4 ± 0.1 | 3.9 ± 0.1 | 3.6 ± 0.1 | – | – | – | – | – | – | 4.2 ± 0.1 | CCCC [butane] + CCC(C)O |
| – | – | – | – | 3.9 ± 0.1 | 4.1 ± 0.1 | 4.1 ± 0.1 | 4.1 ± 0.1 | 4 ± 0.1 | – | – | – | CCCC [butane] + CCCCO |
| – | – | 3.5 ± 0.1 | 3.5 ± 0.1 | 3.3 ± 0.1 | – | – | – | – | 3.6 ± 0.1 | 3.5 ± 0.1 | – | CCC [propane] + CCC(C)O |
| – | 3.6 ± 0.1 | – | 3.6 ± 0.1 | 3.6 ± 0.1 | 3.6 ± 0.1 | – | 3.6 ± 0.1 | – | – | – | – | CCC [propane] + CCCCO |
| – | – | 3.1 ± 0.1 | 3 ± 0.1 | 2.8 ± 0.1 | – | – | – | – | 3.1 ± 0.1 | 3.1 ± 0.1 | – | C=CC [propene] + CCC(C)O |
| 3 ± 0.1 | 3 ± 0.1 | – | 3 ± 0.1 | 3 ± 0.1 | – | – | 3 ± 0.1 | – | – | – | – | C=CC [propene] + CCCCO |
